Reference: patent US9650616B2, “Methods for increasing grain yield” (University of Florida Research Foundation, Inc., priority 2014, dated 2017)
Residue numbers refer to the chain shown, from its start.

How the values were obtained:
[1] = target: T1, maize endosperm AGPase, large subunit variant GGRA (Q96G, D161G, A443R, Q289A; numbering of SEQ ID NO: 20) (Zea mays, UniProt P55241+Q84PF5, A443R/D161G/Q289A/Q96G); assay: Apparent kinetic constants with 3-PGA, 37° C., GGRA; type: biochemical; conditions: read-out: ATP Km
T1 sequence (P55241 46-516 A443R/D161G/Q289A/Q96G): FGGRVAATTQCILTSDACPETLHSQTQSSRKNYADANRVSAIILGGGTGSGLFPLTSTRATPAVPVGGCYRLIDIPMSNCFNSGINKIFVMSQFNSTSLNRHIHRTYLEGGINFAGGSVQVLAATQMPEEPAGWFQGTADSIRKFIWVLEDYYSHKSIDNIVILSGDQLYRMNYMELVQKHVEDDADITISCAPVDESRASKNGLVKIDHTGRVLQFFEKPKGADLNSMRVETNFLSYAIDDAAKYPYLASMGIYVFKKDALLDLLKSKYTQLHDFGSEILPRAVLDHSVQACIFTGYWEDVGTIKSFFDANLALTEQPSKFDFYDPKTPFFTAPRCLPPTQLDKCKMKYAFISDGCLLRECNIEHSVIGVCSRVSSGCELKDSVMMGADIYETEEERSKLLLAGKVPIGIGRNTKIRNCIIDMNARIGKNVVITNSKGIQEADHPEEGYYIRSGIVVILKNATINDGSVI
T1 sequence (Q84PF5 1-474): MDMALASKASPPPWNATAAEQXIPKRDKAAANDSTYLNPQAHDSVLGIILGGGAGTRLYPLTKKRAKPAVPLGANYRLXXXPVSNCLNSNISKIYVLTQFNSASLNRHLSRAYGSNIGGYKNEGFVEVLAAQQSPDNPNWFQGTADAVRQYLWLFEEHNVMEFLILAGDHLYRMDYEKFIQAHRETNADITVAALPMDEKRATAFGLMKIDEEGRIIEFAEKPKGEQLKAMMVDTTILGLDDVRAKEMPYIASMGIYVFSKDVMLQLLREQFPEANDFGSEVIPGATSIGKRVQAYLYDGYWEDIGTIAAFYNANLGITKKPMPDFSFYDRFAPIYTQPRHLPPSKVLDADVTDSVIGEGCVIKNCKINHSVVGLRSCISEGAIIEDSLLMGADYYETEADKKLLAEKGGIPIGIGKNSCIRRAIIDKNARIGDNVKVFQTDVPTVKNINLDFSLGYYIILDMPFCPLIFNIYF
From the text: (§1) The small and large subunit plasmids of maize endosperm AGPase (pMONcBt2 and pMONcSh2, respectively) (Giroux et al., 1996) were expressed in E. coli AC70R1-504 cells (Iglesias et al., 1993) as previously described (Boehlein et al., 2008).
(§2) An endpoint assay was used to determine the rate of the AGPase reaction by coupling the formation of PPi to a decrease in NADH concentration (Boehlein et al., 2008). […] The Michaelis constants (Km) were obtained by varying one substrate in the presence of saturating concentrations of the second substrate. The activation constants were obtained by varying the activator at fixed levels of both substrates. All reactions were performed at 37° C. and mixes were prewarmed before starting the reaction with enzyme. […] The absorbance at 340 nm was monitored after 30 min and the amount of PPi produced was determined from a standard curve using PPi in complete reaction mixtures lacking AGPase. Blank samples contained complete reaction mixtures without enzyme and the change in absorbance between the blank and the reaction was used to calculate the amount of PPi produced. […]
(§3) The apparent Michaelis constant and maximum velocity of each reaction was calculated from a V vs. S plots using nonlinear regression analysis and the following equation, v=VmaxS/(Km+S), where v is the measured velocity, Vmax is the maximum velocity, S is the substrate concentration. […]

[2] = target: T2, maize endosperm AGPase, large subunit variant GG (Q96G, D161G; numbering of SEQ ID NO: 20) (Zea mays, UniProt P55241+Q84PF5, D161G/Q96G); assay: Apparent kinetic constants with 3-PGA, 37° C., GG; type: biochemical; conditions: read-out: ATP Km
T2 sequence (P55241 46-516 D161G/Q96G): T1 sequence (P55241 46-516 A443R/D161G/Q289A/Q96G) with A244Q, R398A
T2 sequence (Q84PF5 1-474): T1 sequence (Q84PF5 1-474)
From the text: as §1, §2, §3

## Nc1ncnc2c1ncn2[C@@H]1O[C@H](COP(=O)(O)OP(=O)(O)OP(=O)(O)O)[C@@H](O)[C@H]1O [ATP]
[1]
  Km: 57 µM
[2]
  Km: 31 µM
